# Data: patent US20200370087A1, “METHOD FOR DETERMINING MICROBIAL SUSCEPTIBILITY TO ANTIBIOTIC AGENTS” (Ascilion AB, priority 2017, published 2020)
# How the values were obtained:
# [1] = tested on: Escherichia coli (ATCC 25922); assay: Glucose consumption susceptibility test, blood culture diluted in MHB with glucose (Example 1); assay type: cell-based; parameters: glucose concentration, t = 0 / glucose concentration, t = 60 / glucose concentration, t = 120 / glucose concentration, t = 180 / dC/dT (rate of change in glucose concentration) / glucose concentration, t = 240: unit not given here; conditions: for F = the rate of change in glucose concentration in relation to the reference / dC/dT (rate of change in glucose concentration) / glucose concentration, t = 0 / glucose concentration, t = 60 / glucose concentration, t = 120 / glucose concentration, t = 180 / glucose concentration, t = 240: E. coli; for glucose concentration, t = 0: 0 minutes; for glucose concentration, t = 60: 60 minutes; for glucose concentration, t = 120: 120 minutes; for glucose concentration, t = 180: 180 minutes; for glucose concentration, t = 240: 240 minutes
# Experimental: (§1) Strains of Escherichia coli (ATCC 25922), Enterococcus faecalis (ATCC 29212) and Staphylococcus aureus (ATCC 29213) were inoculated in blood culture bottles (SVA, Uppsala, Sweden) and cultivated according to the manufacturer's instructions until positive.
# (§2) Medium from each blood culture bottle was diluted 1:100 with cation adjusted Mueller-Hinton broth (SVA, Uppsala, Sweden) supplemented with glucose to a concentration of 1.0 mg/mL.
# (§3) Glucose concentrations were measured at 0, 60, 120, 180, and 240 minutes using a WaveSense Jazz glucometer (AgaMatrix, Inc., Salem, N.H., USA) with accompanying test strips.
# (§4) Susceptibility scores corresponding to MIC values were calculated as described above. A 80% threshold was applied, i.e. the lowest concentration of antibiotic that entailed a rate of change in glucose concentration that was equal to or less than 80% of the reference was selected as the Minimal Inhibitory Concentration. The rate of change was calculated between the measurements at 60 and 180 minutes.
# [2] = tested on: Staphylococcus aureus (ATCC 29213); assay: as above; assay type: cell-based; parameters: glucose concentration, t = 0 / glucose concentration, t = 60 / glucose concentration, t = 120 / glucose concentration, t = 180 / glucose concentration, t = 240 / dC/dT (rate of change in glucose concentration): unit not given here; conditions: for F = the rate of change in glucose concentration in relation to the reference / dC/dT (rate of change in glucose concentration) / glucose concentration, t = 0 / glucose concentration, t = 60 / glucose concentration, t = 120 / glucose concentration, t = 180 / glucose concentration, t = 240: S. aureus; for glucose concentration, t = 0: 0 minutes; for glucose concentration, t = 60: 60 minutes; for glucose concentration, t = 120: 120 minutes; for glucose concentration, t = 180: 180 minutes; for glucose concentration, t = 240: 240 minutes
# Experimental: as §1, §2, §3, §4
# [3] = tested on: Staphylococcus aureus ATCC 29213; conditions: S.aureus, cited from earlier work
smiles,measurement,setting,value
"CO[C@@]1(NC(=O)Cc2cccs2)C(=O)N2C(C(=O)O)=C(COC(N)=O)CS[C@@H]21 [Cefoxitin, cefoxitin]",F = the rate of change in glucose concentration in relation to the reference,[1]; antibiotic 0.25 μg/mL,165%
same,dC/dT (rate of change in glucose concentration),[1]; antibiotic 0.25 μg/mL,102
same,"glucose concentration, t = 0",[1]; antibiotic 0.25 μg/mL,145
same,"glucose concentration, t = 60",[1]; antibiotic 0.25 μg/mL,157
same,"glucose concentration, t = 120",[1]; antibiotic 0.25 μg/mL,143
same,"glucose concentration, t = 180",[1]; antibiotic 0.25 μg/mL,41
same,F = the rate of change in glucose concentration in relation to the reference,[1]; antibiotic 0.5 μg/mL,139%
same,dC/dT (rate of change in glucose concentration),[1]; antibiotic 0.5 μg/mL,86
same,"glucose concentration, t = 0",[1]; antibiotic 0.5 μg/mL,139
same,"glucose concentration, t = 60",[1]; antibiotic 0.5 μg/mL,154
same,"glucose concentration, t = 120",[1]; antibiotic 0.5 μg/mL,140
same,"glucose concentration, t = 180",[1]; antibiotic 0.5 μg/mL,54
same,F = the rate of change in glucose concentration in relation to the reference,[1]; antibiotic 1 μg/mL,129%
same,dC/dT (rate of change in glucose concentration),[1]; antibiotic 1 μg/mL,80
same,"glucose concentration, t = 0",[1]; antibiotic 1 μg/mL,144
same,"glucose concentration, t = 60",[1]; antibiotic 1 μg/mL,150
same,"glucose concentration, t = 120",[1]; antibiotic 1 μg/mL,143
same,"glucose concentration, t = 180",[1]; antibiotic 1 μg/mL,63
same,F = the rate of change in glucose concentration in relation to the reference,[1]; antibiotic 2 μg/mL,102%
same,dC/dT (rate of change in glucose concentration),[1]; antibiotic 2 μg/mL,63
same,"glucose concentration, t = 0",[1]; antibiotic 2 μg/mL,143
same,"glucose concentration, t = 60",[1]; antibiotic 2 μg/mL,163
same,"glucose concentration, t = 120",[1]; antibiotic 2 μg/mL,138
same,"glucose concentration, t = 180",[1]; antibiotic 2 μg/mL,75
same,F = the rate of change in glucose concentration in relation to the reference,[1]; antibiotic 4 μg/mL,19%
same,dC/dT (rate of change in glucose concentration),[1]; antibiotic 4 μg/mL,12
same,"glucose concentration, t = 0",[1]; antibiotic 4 μg/mL,146
same,"glucose concentration, t = 60",[1]; antibiotic 4 μg/mL,149
same,"glucose concentration, t = 120",[1]; antibiotic 4 μg/mL,140
same,"glucose concentration, t = 180",[1]; antibiotic 4 μg/mL,125
same,"glucose concentration, t = 240",[1]; antibiotic 4 μg/mL,116
same,F = the rate of change in glucose concentration in relation to the reference,[1]; antibiotic 8 μg/mL,18%
same,dC/dT (rate of change in glucose concentration),[1]; antibiotic 8 μg/mL,11
same,"glucose concentration, t = 0",[1]; antibiotic 8 μg/mL,145
same,"glucose concentration, t = 60",[1]; antibiotic 8 μg/mL,164
same,"glucose concentration, t = 120",[1]; antibiotic 8 μg/mL,149
same,"glucose concentration, t = 180",[1]; antibiotic 8 μg/mL,132
same,"glucose concentration, t = 240",[1]; antibiotic 8 μg/mL,127
same,F = the rate of change in glucose concentration in relation to the reference,[1]; antibiotic 16 μg/mL,6%
same,dC/dT (rate of change in glucose concentration),[1]; antibiotic 16 μg/mL,4
same,"glucose concentration, t = 0",[1]; antibiotic 16 μg/mL,142
same,"glucose concentration, t = 60",[1]; antibiotic 16 μg/mL,152
same,"glucose concentration, t = 120",[1]; antibiotic 16 μg/mL,152
same,"glucose concentration, t = 180",[1]; antibiotic 16 μg/mL,141
same,"glucose concentration, t = 240",[1]; antibiotic 16 μg/mL,145
same,F = the rate of change in glucose concentration in relation to the reference,[1]; antibiotic 32 μg/mL,5%
same,dC/dT (rate of change in glucose concentration),[1]; antibiotic 32 μg/mL,3
same,"glucose concentration, t = 0",[1]; antibiotic 32 μg/mL,146
same,"glucose concentration, t = 60",[1]; antibiotic 32 μg/mL,150
same,"glucose concentration, t = 120",[1]; antibiotic 32 μg/mL,143
same,"glucose concentration, t = 180",[1]; antibiotic 32 μg/mL,142
same,"glucose concentration, t = 240",[1]; antibiotic 32 μg/mL,137
same,MIC,"[1]; Escherichia coli, ATCC25922, E.coli, 80% threshold of reference rate of change, 60 to 180 minutes, N/A = not susceptible, no MIC value can be calculated, read-out: MIC, Measured",4 mg/L
same,F = the rate of change in glucose concentration in relation to the reference,[2]; antibiotic 0.25 μg/mL,91%
same,dC/dT (rate of change in glucose concentration),[2]; antibiotic 0.25 μg/mL,31
same,"glucose concentration, t = 0",[2]; antibiotic 0.25 μg/mL,143
same,"glucose concentration, t = 60",[2]; antibiotic 0.25 μg/mL,152
same,"glucose concentration, t = 120",[2]; antibiotic 0.25 μg/mL,132
same,"glucose concentration, t = 180",[2]; antibiotic 0.25 μg/mL,91
same,"glucose concentration, t = 240",[2]; antibiotic 0.25 μg/mL,33
same,F = the rate of change in glucose concentration in relation to the reference,[2]; antibiotic 0.5 μg/mL,96%
same,dC/dT (rate of change in glucose concentration),[2]; antibiotic 0.5 μg/mL,32
same,"glucose concentration, t = 0",[2]; antibiotic 0.5 μg/mL,144
same,"glucose concentration, t = 60",[2]; antibiotic 0.5 μg/mL,155
same,"glucose concentration, t = 120",[2]; antibiotic 0.5 μg/mL,130
same,"glucose concentration, t = 180",[2]; antibiotic 0.5 μg/mL,91
same,"glucose concentration, t = 240",[2]; antibiotic 0.5 μg/mL,32
same,F = the rate of change in glucose concentration in relation to the reference,[2]; antibiotic 1 μg/mL,82%
same,dC/dT (rate of change in glucose concentration),[2]; antibiotic 1 μg/mL,28
same,"glucose concentration, t = 0",[2]; antibiotic 1 μg/mL,147
same,"glucose concentration, t = 60",[2]; antibiotic 1 μg/mL,155
same,"glucose concentration, t = 120",[2]; antibiotic 1 μg/mL,133
same,"glucose concentration, t = 180",[2]; antibiotic 1 μg/mL,100
same,"glucose concentration, t = 240",[2]; antibiotic 1 μg/mL,40
same,F = the rate of change in glucose concentration in relation to the reference,[2]; antibiotic 2 μg/mL,72%
same,dC/dT (rate of change in glucose concentration),[2]; antibiotic 2 μg/mL,24
same,"glucose concentration, t = 0",[2]; antibiotic 2 μg/mL,141
same,"glucose concentration, t = 60",[2]; antibiotic 2 μg/mL,146
same,"glucose concentration, t = 120",[2]; antibiotic 2 μg/mL,143
same,"glucose concentration, t = 180",[2]; antibiotic 2 μg/mL,98
same,"glucose concentration, t = 240",[2]; antibiotic 2 μg/mL,61
same,F = the rate of change in glucose concentration in relation to the reference,[2]; antibiotic 4 μg/mL,16%
same,dC/dT (rate of change in glucose concentration),[2]; antibiotic 4 μg/mL,6
same,"glucose concentration, t = 0",[2]; antibiotic 4 μg/mL,142
same,"glucose concentration, t = 60",[2]; antibiotic 4 μg/mL,150
same,"glucose concentration, t = 120",[2]; antibiotic 4 μg/mL,143
same,"glucose concentration, t = 180",[2]; antibiotic 4 μg/mL,139
same,"glucose concentration, t = 240",[2]; antibiotic 4 μg/mL,139
same,F = the rate of change in glucose concentration in relation to the reference,[2]; antibiotic 8 μg/mL,24%
same,dC/dT (rate of change in glucose concentration),[2]; antibiotic 8 μg/mL,8
same,"glucose concentration, t = 0",[2]; antibiotic 8 μg/mL,136
same,"glucose concentration, t = 60",[2]; antibiotic 8 μg/mL,157
same,"glucose concentration, t = 120",[2]; antibiotic 8 μg/mL,160
same,"glucose concentration, t = 180",[2]; antibiotic 8 μg/mL,141
same,"glucose concentration, t = 240",[2]; antibiotic 8 μg/mL,149
same,F = the rate of change in glucose concentration in relation to the reference,[2]; antibiotic 16 μg/mL,22%
same,dC/dT (rate of change in glucose concentration),[2]; antibiotic 16 μg/mL,8
same,"glucose concentration, t = 0",[2]; antibiotic 16 μg/mL,140
same,"glucose concentration, t = 60",[2]; antibiotic 16 μg/mL,157
same,"glucose concentration, t = 120",[2]; antibiotic 16 μg/mL,152
same,"glucose concentration, t = 180",[2]; antibiotic 16 μg/mL,142
same,"glucose concentration, t = 240",[2]; antibiotic 16 μg/mL,142
same,F = the rate of change in glucose concentration in relation to the reference,[2]; antibiotic 32 μg/mL,27%
same,dC/dT (rate of change in glucose concentration),[2]; antibiotic 32 μg/mL,9
same,"glucose concentration, t = 0",[2]; antibiotic 32 μg/mL,145
same,"glucose concentration, t = 60",[2]; antibiotic 32 μg/mL,154
same,"glucose concentration, t = 120",[2]; antibiotic 32 μg/mL,145
same,"glucose concentration, t = 180",[2]; antibiotic 32 μg/mL,136
same,"glucose concentration, t = 240",[2]; antibiotic 32 μg/mL,139
same,MIC,"[2]; Staphylococcus aureus, ATCC29213, S.aureus, 80% threshold of reference rate of change, 60 to 180 minutes, read-out: MIC, Measured",2 mg/L
same,"MIC, EUCAST, range in parentheses",[3]; range obtained by EUCAST from ISO 20776-1: 2006,(1-4) ug/mL
same,"MIC, EUCAST","[3]; reference value, Mueller-Hinton agar, incubation 18±2 h",2 mg/L
